Legend:
[1] = system: Pyricularia oryzae; assay: whole plant or invertebrate; type: in vivo; settings: foliar, 96 h, read-out: control of fungal infection, Pyricularia oryzae
[2] = system: Septoria tritici; assay: Growth inhibition in nutrient broth, Septoria tritici (leaf blotch), photometric; type: cell-based; settings: Zymoseptoria tritici, PDB broth, 24 C, 72 hrs, read-out: control of fungal infection, Septoria tritici
[3] = system: Plasmopara viticola; assay: Leaf disk assay, Plasmopara viticola (downy mildew of grapevine), preventive; type: in vivo; settings: foliar, 168 h, grapevine leaf disks, assessed seven days after inoculation, read-out: control of fungal infection, Plasmopara viticola
[4] = system: Erysiphe graminis f.sp. tritici; assay: Leaf disk assay, Erysiphe graminis f.sp. tritici (wheat powdery mildew), preventive; type: in vivo; settings: Blumeria graminis, foliar, 96 h, wheat leaf segments, assessed four days after inoculation, read-out: control of fungal infection, Erysiphe graminis f.sp. tritici
Method in brief: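 Wheat leaf segments on agar were sprayed with compound at 200 ppm (DMSO stock diluted in water). After 12–24 h drying they were inoculated with powdery mildew spores. Preventive activity was scored 4 days after inoculation.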

[5] = system: Septoria nodorum; assay: Leaf disk assay, Septoria nodorum (wheat glume blotch), preventive; type: in vivo; settings: Parastagonospora nodorum, foliar, 96 h, wheat leaf segments, assessed four days after inoculation, read-out: control of fungal infection, Septoria nodorum
[6] = system: Phytophthora infestans; assay: whole plant or invertebrate; type: in vivo; settings: in Solanum lycopersicum, foliar, 96 h, read-out: control of fungal infection, Phytophthora infestans
[7] = system: Puccinia recondita f.sp. tritici; assay: Leaf disk assay, Puccinia recondita f.sp. tritici (wheat brown rust), preventive; type: in vivo; settings: foliar, 216 h, wheat leaf segments, assessed nine days after inoculation, read-out: control of fungal infection, Puccinia recondita f.sp. tritici
[8] = system: Pythium ultimum; assay: Growth inhibition in potato dextrose broth, Pythium ultimum (damping off), photometric; type: cell-based; settings: Globisporangium ultimum, 24° C., 48 hours, read-out: control of fungal infection, Pythium ultimum
Method in brief: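 Growth inhibition was read photometrically at 48 hours after incubation at 24° C. Test compound was diluted from DMSO to 20 ppm in water and combined with potato dextrose broth seeded with Pythium ultimum mycelial fragments.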

[9] = system: Fusarium culmorum; assay: Growth inhibition in nutrient broth, Fusarium culmorum (root rot), photometric; type: cell-based; settings: 48 h, read-out: control of fungal infection, Fusarium culmorum
Method in brief: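 Fusarium culmorum conidia in potato dextrose broth were added to compounds in DMSO. Plates were incubated at 24 C for 48 hrs, with growth inhibition read photometrically. […]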

[10] = system: Pyrenophora teres; assay: Leaf disk assay, Pyrenophora teres (barley net blotch), preventive; type: in vivo; settings: foliar, 96 h, barley leaf segments, assessed four days after inoculation, read-out: control of fungal infection, Pyrenophora teres
Method in brief: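 Barley leaf segments on agar were sprayed with compound at 200 ppm (from DMSO stock diluted in water) and dried for 12-24 h before inoculation with a Pyrenophora teres spore suspension. Preventive fungicidal activity was scored 4 days after inoculation.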

[11] = system: Botrytis cinerea; assay: Leaf disk assay, Botrytis cinerea (grey mould) on bean, preventive; type: in vivo; settings: foliar, 96 h, bean leaf disks, assessed four days after inoculation, read-out: control of fungal infection, Botrytis cinerea

SMILES	melting point	pest or weed control at 200 ppm [1]	inhibition of growth at 60 ppm [2]	pest or weed control at 200 ppm [3]	pest or weed control at 200 ppm [4]	pest or weed control at 200 ppm [5]	pest or weed control at 200 ppm [6]	pest or weed control at 200 ppm [7]	inhibition of growth at 20 ppm [8]	inhibition of growth at 60 ppm [9]	pest or weed control at 200 ppm [10]	pest or weed control at 200 ppm [11]
C#Cc1cnc2ccc(OC(SC)C(=O)NC3COC3)cc2c1 (stereo not drawn) [Compound 178, 2-(3-Ethynyl-quinolin-6-yloxy)-2-methylsulfanyl-N-oxetan-3-yl-acetamide]	98 to 100 °C											
C#Cc1cnc2ccc(OC(SC)C(=O)NC3(C)COC3)cc2c1 (stereo not drawn) [Compound 186, 2-(3-Ethynyl-quinolin-6-yloxy)-N-(3-methyl-oxetan-3-yl)-2-methylsulfanyl-acetamide]	61 to 65 °C											
C#Cc1cnc2c(Cl)cc(OC(SC)C(=O)NC3(C)CCC3)cc2c1 (stereo not drawn) [Compound 203, 2-(8-Chloro-3-ethynyl-quinolin-6-yloxy)-N-(1-methyl-cyclobutyl)-2-methylsulfanyl-acetamide]	121 to 123 °C											
C#Cc1cnc2c(F)cc(OC(SC)C(=O)NC(C)C)cc2c1 (stereo not drawn) [Compound 222, 2-(3-Ethynyl-8-fluoro-quinolin-6-yloxy)-N-isopropyl-2-methylsulfanyl-acetamide]	135 to 136 °C											
C#Cc1cnc2ccc(OC(SC)C(=O)NC3CSC3)cc2c1 (stereo not drawn) [Compound 223, 2-(3-Ethynyl-quinolin-6-yloxy)-2-methylsulfanyl-N-thietan-3-yl-acetamide]	150 to 152 °C											
C#Cc1cnc2ccc(OC(SC)C(=O)NC3(C)CSC3)cc2c1 (stereo not drawn) [Compound 224, 2-(3-Ethynyl-quinolin-6-yloxy)-2-methylsulfanyl-N-(3-methyl-thietan-3-yl)-acetamide]	132 to 134 °C											
C#Cc1cnc2cc(F)c(OC(SC)C(=O)NC(C)(C#N)COC)cc2c1 (stereo not drawn) [Example 6]		≥ 60%	≥ 60%	≥ 60%	≥ 60%	≥ 60%	≥ 60%	≥ 60%	≥ 60%			
C#Cc1cnc2c(C)cc(OC(SC)C(=O)NC(C)(C)C#C)cc2c1 (stereo not drawn) [Example 7]		≥ 60%	≥ 60%	≥ 60%		≥ 60%	≥ 60%		≥ 60%	≥ 60%	≥ 60%	
C#Cc1cnc2c(C)cc(OC(SC)C(=O)NC(C)(C)C#CC)cc2c1 (stereo not drawn) [Example 8]		≥ 60%	≥ 60%	≥ 60%		≥ 60%	≥ 60%		≥ 60%	≥ 60%	≥ 60%	≥ 60%
C#Cc1cnc2c(C)cc(OC(SC)C(=O)NC(C)(C)C#CCOC)cc2c1 (stereo not drawn) [Example 9]		≥ 60%	≥ 60%	≥ 60%	≥ 60%	≥ 60%	≥ 60%	≥ 60%	≥ 60%	≥ 60%		
C#CCOCC#CC(C)(C)NC(=O)C(Oc1cc(C)c2ncc(C#C)cc2c1)SC (stereo not drawn) [Example 10]		≥ 60%	≥ 60%	≥ 60%	≥ 60%	≥ 60%	≥ 60%		≥ 60%	≥ 60%		
C#Cc1cnc2c(C)cc(OC(SC)C(=O)NC(C)(C#N)COC)cc2c1 (stereo not drawn) [Example 12]		≥ 60%	≥ 60%	≥ 60%	≥ 60%	≥ 60%	≥ 60%	≥ 60%	≥ 60%			
C#CCOCC(C)(COCC#C)NC(=O)C(Oc1ccc2ncc(C#C)cc2c1)SC (stereo not drawn) [Example 12c, 2-(3-ethynyl-quinolin-6-yloxy)-N-(1-methyl-2-prop-2-ynyloxy-1-prop-2-ynyloxymethyl-ethyl)-2-methylsulfanyl-acetamide]	95 to 100 °C											
C#Cc1cnc2ccc(OC(SC)C(=O)NC(C)(C#N)CO)cc2c1 (stereo not drawn) [Example 12d, N-(1-cyano-2-hydroxy-1-methyl-ethyl)-2-(3-ethynyl-quinolin-6-yloxy)-2-methylsulfanyl-acetamide]	78 to 80 °C											
C#Cc1cnc2c(C)cc(OC(SC)C(=O)NC(C)(C)COC)cc2c1 (stereo not drawn) [Example 13]		≥ 60%	≥ 60%	≥ 60%	≥ 60%	≥ 60%	≥ 60%	≥ 60%	≥ 60%	≥ 60%	≥ 60%	≥ 60%
C#CCOCC(C)(C)NC(=O)C(Oc1cc(C)c2ncc(C#C)cc2c1)SC (stereo not drawn) [Example 14]		≥ 60%	≥ 60%	≥ 60%	≥ 60%	≥ 60%	≥ 60%	≥ 60%	≥ 60%	≥ 60%	≥ 60%	≥ 60%
C#Cc1cnc2c(C)cc(OC(SC)C(=O)NC(C)(C)CO)cc2c1 (stereo not drawn) [Example 15]		≥ 60%	≥ 60%	≥ 60%		≥ 60%	≥ 60%		≥ 60%			
C#CCC(C)(C)NC(=O)C(Oc1cc(C)c2ncc(C#C)cc2c1)SC (stereo not drawn) [Example 16]		≥ 60%	≥ 60%	≥ 60%	≥ 60%	≥ 60%	≥ 60%	≥ 60%	≥ 60%	≥ 60%	≥ 60%	

Reference: patent US8415272B2, “Quinoline derivatives and their use as fungicides” (Syngenta Crop Protection LLC, priority 2008, dated 2013)
